Results: patent US12084418B2, “Small molecule inhibitors of G(alpha)i2 protein and uses thereof” (Clark Atlanta University, Inc., priority 2020, dated 2024)
“Also recorded” adds a separate entry of the source.

Experiments:
[1] = tested on: DU145 cells; assay: Transwell migration assay in DU145 cells; format: cell-based, human; conditions: compound 10 μM
Method: (§1) Human prostate cancer cell lines (DU145 and PC3) were obtained from American Type Culture Collection (ATCC) (Rockville, MD). DU145 and PC3 are androgen independent cell lines, derived from brain and bone metastatic sites, respectively. They were maintained in Minimum Essential Medium, supplemented with 5% FBS, in a 5% CO2 environment at 37° C. E006AA cells are derived from localized prostate cancer in a patient. These cells were maintained in Dulbecco's Modified Eagle Medium, supplemented with 5% FBS, in a 5% CO2 environment at 37° C.
(§2) In vitro cell migration and invasion assays were conducted using 24-well transwell inserts (8 μm). The transwell inserts were coated with […] of rat tail collagen for migration assays, and with 50 μl of a 1:4 Matrigel/Coating buffer solution for invasion assays. Cells were suspended at the appropriate density in appropriate media and treated with the inhibitors, at specific concentrations. For migration assays, EGF was used as a chemoattractant (10 ng/ml) for PC3, DU145, E006AA and SKOV3 cells; 10% FBS was used for MCF7 cells. […] The number of stained nuclei were determined with automatic counting using image analysis software (ZEN 2012; Carl Zeiss). Results were expressed as migration or invasion index defined as: the average number of cells per field for test substance/the average number of cells per field for the medium control.

[2] = tested on: PC3 cells; assay: Transwell migration assay in PC3 cells; format: cell-based, human
Method: as §1
For biological assays, the compounds were dissolved in DMSO at a starting concentration of 0.05 mM (compound 12) and 0.1 mM (compounds 9a-b, 13 and 14) and then diluted in culture media to the final concentrations used for the assays.
(§3) In vitro cell migration and invasion assays were conducted using 24-well transwell inserts (8 μm). The transwell inserts were coated with […] of rat tail collagen for migration assays, and with 50 μl of a 1:4 Matrigel/Coating buffer solution for invasion assays. Cells were suspended at the appropriate density in appropriate media and treated with the inhibitors, at specific concentrations. For migration assays, EGF was used as a chemoattractant (10 ng/ml) for PC3, DU145, E006AA and SKOV3 cells; 10% FBS was used for MCF7 cells. The plates were incubated at 37° C. for 5 hours (DU145, PC3 and SKOV3), 24 hours (E006AA) or 48 hours (MCF7) for migration assays, and 48 hours for invasion assays. After fixation, the cells were stained with 3 ng/ml of DAPI and images of five non-overlapping fields were captured using Axiovert 200M, Carl Zeiss (Thornwood, NY) microscope. The number of stained nuclei were determined with automatic counting using image analysis software (ZEN 2012; Carl Zeiss). Results were expressed as migration or invasion index defined as: the average number of cells per field for test substance/the average number of cells per field for the medium control.

[3] = tested on: MCF7 cells; assay: Transwell migration assay in MCF7 cells; format: cell-based, human; conditions: compound 10 μM, 10% FBS, 48 hours
Method: (§4) Human breast adenocarcinoma cell line MCF7 and human ovarian adenocarcinoma cell line SKOV3 were obtained from American Type Culture Collection (ATCC) (Rockville, MD) and maintained in Dulbecco's Modified Eagle Medium, supplemented with 5% FBS, in a 5% CO2 environment at 37° C.
as §2, with “cells. The plates were incubated at 37° C. for 5 hours (DU145, PC3 and SKOV3), 24 hours (E006AA) or 48 hours (MCF7) for migration assays, and 48 hours for invasion assays.” for “cells.”

[4] = target: T1, Gαi2 (Homo sapiens, UniProt P04899); assay: Immunoprecipitation of active Gαi and Western blot with anti-Gαi2 antibody in PC3 cells; format: cell-based; conditions: for activation of Gαi2 (conversion from GDP- to GTP-state): stimulus not given
T1 construct: endogenous in cells; host or cells: PC3 cells
Method: PC3 cells (3×10^6 cell/dish) were incubated with or without inhibitor compound 14 (10 μM) for 30 minutes and then treated with EGF (10 ng/ml) or oxytocin (200 nmol/L) for additional 30 minutes. Cells were lysed in ice-cold cell lysis buffer (Cell Signaling Technology) and snap-frozen in liquid nitrogen. Total cell lysates, containing approximately 1000 μg of proteins, were used for immunoprecipitation. The lysates were incubated with 1 μg of anti-active Gαi antibody, overnight at 4° C. Immunocomplexes were collected by centrifugation after incubation with protein A/G-Sepharose beads for 48 h (Santa Cruz Biotechnology) and were analyzed by Western blot analysis with specific anti-Gαi2 antibody (Abcam).
Western blot analyses were performed. Briefly, protein samples (30-35 μg proteins) were separated on 10% SDS-PAGE gels and transferred to polyvinylidene difluoride (PVDF) membranes (Millipore Corp., Bedford, Massachusetts). After blocking, the membranes were incubated with several primary antibodies, at appropriate dilutions (1:500 for Giα2; 1:3000 for α-tubulin) overnight at 4° C. After washing, the blots were incubated with appropriate secondary antibodies and developed in ECL mixture, using Syngene PXi Imaging System, according to the manufacture's manual. α-tubulin was used as loading control.

[5] = tested on: SKOV3 cells; assay: Transwell migration assay in SKOV3 cells; format: cell-based, human; conditions: compound 10 μM, EGF 10 ng/ml, 5 hours
Method: as §4
as §2, with “cells. The plates were incubated at 37° C. for 5 hours (DU145, PC3 and SKOV3), 24 hours (E006AA) or 48 hours (MCF7) for migration assays, and 48 hours for invasion assays.” for “cells.”

[6] = tested on: PC3 cells; assay: Cell viability assay (MTS); format: cell-based, human; conditions: compound 10 μM, 24 hours
Method: FIG. 3C is a graph depicting a viability study of PC3 cells treated for 24 hours with inhibitor compounds 9b, 13 and 14, at 10 μM. MTS assays were conducted for 4 hours and the results were expressed as % of viable treated cells against the control cells. Each bar represents mean±SEM (n=3).
Cell viability assays were performed using CellTiter 96® AQueous One Solution Cell Proliferation Assay (MTS) from Promega, according to the manufacture's protocol. Briefly, 5.0×10^4 cells/well were plated in a 96 well plates and incubated in a 5% CO2 environment at 37° C. overnight. After 24 hours the medium was replaced with fresh medium, containing several compounds at the appropriate concentrations. Diluted DMSO was used as a control. MTS assays were performed after 24 hours and the absorbance read at 490 nm, using a spectrophotometer.

[7] = tested on: PC3 cells; assay: Transwell (Matrigel) invasion assay in PC3 cells; format: cell-based, human; conditions: compound 10 μM, 48 hours
Method: as §3

[8] = tested on: PC3 cells; assay: Cell viability assay (MTS); format: cell-based, human; conditions: 24 hours
[9] = tested on: E006AA cells; assay: Transwell migration assay in E006AA cells; format: cell-based, human; conditions: compound 10 μM
Method: as §1, §2

[10] = tested on: DU145-Gαi2-Q205L cells; assay: Transwell migration assay in DU145 cells overexpressing constitutively active Gαi2 (Gαi2-Q205L); format: cell-based, human
Method: DU145 cells were seeded in 6-well plates at a density of 2.0×10^5 cells per well and transfected with pcDNA3.1-EV and pcDNA3.1-Gαi2-Q205L, using ViaFect™ transfection reagent, according to the manufacturer's protocol. Briefly, media with no antibiotics (200 μl/well) containing 2 μg of plasmids DNA were mixed with the transfection reagent (6 μl/well) and, after 20 minutes, the mixtures were added drop by drop on the cells and the cells were cultured for 48 hours. Then the cells were harvested and used for several assays.
as §3

[11] = tested on: PC3 cells; assay: Transwell migration assay in PC3 cells; format: cell-based, human; conditions: absence of EGF stimulus
[12] = compound 10 μM, EGF 10 ng/ml, 5 hours
[13] = compound 50 μM, in presence of EGF
[14] = compound 100 μM, in presence of EGF

T1 sequence (P04899 whole entry): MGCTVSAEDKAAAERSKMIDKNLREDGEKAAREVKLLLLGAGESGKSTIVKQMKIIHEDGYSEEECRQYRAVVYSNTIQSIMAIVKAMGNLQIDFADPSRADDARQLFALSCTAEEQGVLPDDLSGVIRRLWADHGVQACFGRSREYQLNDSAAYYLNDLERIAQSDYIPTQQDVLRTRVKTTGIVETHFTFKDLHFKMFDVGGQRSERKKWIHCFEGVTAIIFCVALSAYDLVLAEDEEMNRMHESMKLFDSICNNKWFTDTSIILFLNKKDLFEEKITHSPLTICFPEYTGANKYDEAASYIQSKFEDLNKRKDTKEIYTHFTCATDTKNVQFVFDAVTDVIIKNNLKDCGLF

| levels of active Gαi2 after stimulation with OXT ([4]; PC3 cells, OXT 200 nmol/L 30 minutes, compound 14 at 10 μM) | Structure (SMILES) | EGF-induced migration of DU145 cells [1] | migratory capability of PC3 cells (migration index) [2, 12] | migratory capability of PC3 cells (migration index) [2, 13] | migratory capability of PC3 cells (migration index) [2, 14] | migration of MCF7 cells [3] | activation of Gαi2 (conversion from GDP- to GTP-state) [4] | migration of SKOV3 cells [5] | cell viability [6] | invasive capability of PC3 cells (invasion index) ([7]; in response to EGF 10 ng/ml) | invasive capability of PC3 cells (invasion index) ([7]; in response to FBS (5%)) | cell viability ([8]; compound 50 μM) | cell viability ([8]; compound 100 μM) | EGF-induced migration of E006AA cells [9] | EGF-stimulated cell migration of DU145-Gαi2-Q205L cells ([10]; compound 10 μM, EGF 10 ng/ml) | basal cell migration of DU145-Gαi2-Q205L cells ([10]; compound 10 μM, basal) | migration of DU145-Gαi2-Q205L cells ([10]; stimulus and concentration not stated at the place (FIG. 5B)) | migratory capability of PC3 cells (migration index) ([11]; compound 50 μM) | migratory capability of PC3 cells (migration index) ([11]; compound 100 μM) |
| --- | --- | --- | --- | --- | --- | --- | --- | --- | --- | --- | --- | --- | --- | --- | --- | --- | --- | --- | --- |
| the levels of active Gαi2 were reduced | C/C(=N\c1ccc(O)cc1)c1cc2ccccc2n1C [Compound 14, (E)-4-((1-(1-methyl-1H-indol-2-yl)ethylidene)amino)phenol] | reduced the EGF-induced migration | significantly decreased EGF-induced migratory capability; also recorded: significantly reduced the migratory capability | reduced the migratory capability | reduced the migratory capability | impaired the migratory capability; also recorded: significantly reduced migration | reduced activation of Gαi2; also recorded: impaired activation of Gαi2 | impaired the migratory capability; also recorded: significantly reduced migration | had no effect on cell viability; also recorded: did not affect cell viability | significantly reduced; also recorded: inhibited | significantly reduced | cytotoxic | cytotoxic | reduced the EGF-induced migration | attenuation | attenuation | significantly reduced migration | – | – |
| – | C/C(=N\c1ccc(O)cc1)c1sc2ccccc2c1O [Compound 12, (E)-2-(1-((4-hydroxyphenyl)imino)ethyl)benzo[b]thiophen-3-ol, reference compound] | – | had no effect on the migration | caused a reduction in the migratory capability | caused a reduction in the migratory capability | – | – | – | had no effect on cell viability | – | – | cytotoxic | cytotoxic | – | – | – | – | caused a reduction in the migratory capability | caused a reduction in the migratory capability |
| – | C/C(=N\c1ccc(O)cc1)c1cc2ccccc2s1 [Compound 13, (E)-4-((1-(benzo[b]thiophen-2-yl)ethylidene)amino)phenol] | reduced the EGF-induced migration | significantly decreased EGF-induced migratory capability; also recorded: significantly reduced the migratory capability | reduced the migratory capability | reduced the migratory capability | – | impaired activation of Gαi2 | – | had no effect on cell viability; also recorded: did not affect cell viability | – | – | cytotoxic | cytotoxic | reduced the EGF-induced migration | – | – | – | – | – |
